# Source: paper PMC12351382, “Fibrinography and thrombography (thrombodynamics-4D) in atrial fibrillation assessment of direct oral anticoagulants in geriatrics patients aged 80 years and older receiving direct oral anticoagulant therapy” (Research and Practice in Thrombosis and Haemostasis, 2025)
# Tests used:
# [1] = tested on: fibrin clot formation; assay: Thrombodynamics-4D fibrinography in plasma samples from ADAGE patients on DOACs; type: in vivo, human
# From the text: (§1) ADAGE is an academic, prospective, observational multicenter study (NCT 02464488; for details, see Foulon-Pinto et al.). We recruited hospitalized patients from the university hospital’s geriatric department (Assistance Publique-Hôpitaux de Paris, Paris, France). […] The DOAC dose regimen was at the discretion of the physician. Exclusion criteria included any acute, unstable comorbid condition or an estimated life expectancy of a few weeks. Sampling (see below) and last DOAC intake times were recorded on a standardized request form. Sampling time points were at the discretion of the physicians over a period of 20 days following inclusion. Time points were classified according to the time elapsed from the last oral intake (T, hours) for patients receiving rivaroxaban. T1 to T4 corresponded to peak time (Tmax), and T20 to T24 corresponded to trough (Tmin). […] Physicians prospectively collected demographic, clinical, and laboratory data (including creatinine clearance [CrCl] calculated with the Cockcroft–Gault formula). The study was approved by the institutionnel Ethics Committee (Comité consultatif de protection des personnes pour la recherche biomédicale–Île-de-France-6–number 15.074bis). All participants gave written informed consent to participate in the study. Only patients for whom remaining plasma aliquots were available were included in the present study.
# (§2) Tubes were sent to each centre’s laboratory within 2 hours after sampling and immediately double-centrifuged for 15 minutes at 2000 × g at 15 to 22 °C to obtain platelet-poor plasma. Plasma samples (500 μL aliquots) were stored at −80 °C prior to shipment on dry ice for central analysis (Haematology Laboratory, Hôpital Lariboisière). Plasma samples were thawed for 3 to 5 minutes in a 37 °C water bath just before testing.
# (§3) The TD-4D assay was performed centrally using the Thrombodynamics analyzer system (Hemacore, Diapharma) with the TD-4D PLS dedicated kit (Hemacore, Diapharma). The system simultaneously measures spatiotemporal parameters of fibrin clot formation (fibrinography) and TG process (thrombography) in a thin layer of unstirred plasma. Briefly, 120 μL of platelet-poor plasma is added to a microcuvette containing corn trypsin inhibitor to prevent contribution of contact phase activation, then 5 μL of phospholipid solution (manufacturer’s reagent) is added. After incubation for 15 minutes at 37 °C in the Thrombodynamics device, the mixture is transferred to a second microcuvette containing calcium ions, and then immediately transferred to the measurement cuvette. Finally, the activator insert, whose surface is coated with immobilized tissue factor (100 pmol/m^2), is then transferred to the cuvette. The process of fibrin clot formation is recorded in a time-lapse video-microscopy mode using a dark-field light scattering method. Simultaneously, the system monitors TG by fluorimetry, based on the ability of thrombin to cleave a fluorogenic substrate, 7-amino-4-methylcoumarin (AMC) bound to a short amino acid sequence (Arg-Gly-Gly). The rate of AMC formation is proportional to local thrombin concentration. The microcuvette is maintained at 37 °C and is illuminated with red (625 nm) or ultra-violet (365 nm) light emitting diodes. Clot growth is detected with red light scattering, while AMC fluorescence is detected with UV. Scattered red light and fluorescence passing through the macro lens are recorded by a charge-coupled device system. Images under red and blue light are acquired once per minute. The whole analysis lasts 1 hour. The Thrombodynamics software (Hemacore, Diapharma) calculates parameters of spatiotemporal dynamics of fibrin clot formation and TG [40, 46]. […]
# [2] = tested on: fibrin clot formation; assay: Thrombodynamics-4D fibrinography in pooled normal plasma (Cryocheck) spiked with DOACs; type: biochemical, human; conditions: 0 to 1000 nM, mainly at low DOAC concentrations
# Protocol: (§4) Frozen pooled normal plasma samples (Cryocheck-Cryopep) were spiked with increasing concentrations of DOACs (0-450 ng/mL), as previously described. […] were kindly provided by Bristol Myers Squibb/Pfizer, Bayer Healthcare, and Boehringer Ingelheim, respectively.
# The TD-4D assay was performed centrally using the Thrombodynamics analyzer system (Hemacore, Diapharma) with the TD-4D PLS dedicated kit (Hemacore, Diapharma). The system simultaneously measures spatiotemporal parameters of fibrin clot formation (fibrinography) and TG process (thrombography) in a thin layer of unstirred plasma. Briefly, 120 μL of platelet-poor plasma is added to a microcuvette containing corn trypsin inhibitor to prevent contribution of contact phase activation, then 5 μL of phospholipid solution (manufacturer’s reagent) is added. […] The process of fibrin clot formation is recorded in a time-lapse video-microscopy mode using a dark-field light scattering method. […] Clot growth is detected with red light scattering, while AMC fluorescence is detected with UV. Scattered red light and fluorescence passing through the macro lens are recorded by a charge-coupled device system. […]
# (§5) The following fibrinography parameters were recorded (see Supplementary Table 1): (i) lag time (Tlag, minutes); (ii) initial rate of clot growth (Vi, μm/min); (iii) rate of clot growth (V, μm/min); (iv) clot size (CS, μm) measured at 30 minutes; (v) clot density (D, arbitrary units); (vi) time to spontaneous clotting (Tsp, minutes). The following thrombography parameters (at the near-activator area) were recorded (see Supplementary Table 1): (i) Tlag (minutes); (ii) time to thrombin peak (minutes); (iii) maximal thrombin concentration (ie, thrombin peak height, Cmax_ATG, AU/L); (iv) endogenous thrombin potential (ETP_ATG, AU⋅min/L); (v) stationary amplitude of moving peak of thrombin (Ast, AU/L); (vi) rate of thrombin peak propagation (μm/min; see Supplementary Videos 1–3).
# [3] = Plasma DOAC concentration in ADAGE patients (chromogenic anti-FXa assay for rivaroxaban and apixaban; anti-FIIa Hemoclot assay for dabigatran); type: in vivo, human; conditions: for DOAC concentration, median (IQR): ADAGE patients ≥80 y, reduced dose: rivaroxaban 15 mg once daily, apixaban 2.5 mg twice daily, dabigatran 110 mg twice daily; for DOAC concentration, range: ADAGE patients, reduced dose (regimens as E1)
# From the text: as §1, §2
# Dedicated calibrations and controls were used. The lower limit of quantification was 20 ng/mL for the 3 assays.
# [4] = tested on: thrombin generation; assay: Thrombodynamics-4D thrombography in pooled normal plasma (Cryocheck) spiked with DOACs; type: biochemical, human
# Protocol: as §4
# as §3, with “minute.” for “minute. The whole analysis lasts 1 hour. The Thrombodynamics software (Hemacore, Diapharma) calculates parameters of spatiotemporal dynamics of fibrin clot formation and TG [40, 46].”
# as §5
# [5] = tested on: thrombin generation; assay: Thrombodynamics-4D thrombography in plasma samples from ADAGE patients on DOACs; type: in vivo, human; conditions: for ETP (endogenous thrombin potential, ETP_ATG), median (IQR) / ETP (endogenous thrombin potential, ETP_ATG), range / Thrombin peak height (Cmax_ATG), median (IQR) / Thrombin peak height (Cmax_ATG), range / Thrombography Tlag (Lag_ATG), median (IQR) / Thrombography Tlag (Lag_ATG), range / Time to peak (Tmax_ATG), median (IQR) / Time to peak (Tmax_ATG), range: ADAGE patients, reduced dose (regimens as E1)
# From the text: as §1, §2, §3
# [6] = Tmax (peak), ADAGE patients, reduced dose (regimens as E1)
# [7] = Tmin (trough), ADAGE patients, reduced dose (regimens as E1)
# [8] = all ADAGE patient samples, Spearman
# [9] = univariate analysis, Tmax, line marked Halving
# [10] = univariate analysis, Tmin, line marked Halving
# [11] = all ADAGE patient samples, any time point and dose
smiles,measurement,setting,value
[H]/N=C(/N)c1ccc(NCc2nc3cc(C(=O)N(CCC(=O)O)c4ccccn4)ccc3n2C)cc1 [Dabigatran],"CS (clot size at 30 minutes), median (IQR)",[1]; [6],1436 (1332-1583) μm
same,"CS (clot size at 30 minutes), range",[1]; [6],1273-2125 μm
same,"D (clot density), median (IQR)",[1]; [6],"28,810 (27,570-29,170) a.u."
same,"D (clot density), range",[1]; [6],"22,740-29,360 a.u."
same,"Fibrinography Tlag (lag time), median (IQR)",[1]; [6],1.3 (1.2-2.0) min
same,"Fibrinography Tlag (lag time), range",[1]; [6],1.0 to 3.9 min
same,"Initial rate of clot growth (Vi), median (IQR)",[1]; [6],60.9 (57.8-65.6) μm/min
same,"Initial rate of clot growth (Vi), range",[1]; [6],54.5-74.4 μm/min
same,"Time to Tsp (spontaneous clotting), range",[1]; [6],9.8 to 58.5 min
same,"CS (clot size at 30 minutes), median (IQR)",[1]; [7],1707 (1634-1904) μm
same,"CS (clot size at 30 minutes), range",[1]; [7],1612-2205 μm
same,"D (clot density), median (IQR)",[1]; [7],"32,220 (30,160-36,290) a.u."
same,"D (clot density), range",[1]; [7],"26,190-39,810 a.u."
same,"Fibrinography Tlag (lag time), median (IQR)",[1]; [7],1.0 (0.9-1.1) min
same,"Fibrinography Tlag (lag time), range",[1]; [7],0.8 to 1.3 min
same,"Initial rate of clot growth (Vi), median (IQR)",[1]; [7],70.3 (66.9-75.1) μm/min
same,"Initial rate of clot growth (Vi), range",[1]; [7],57.5-79.5 μm/min
same,"Time to Tsp (spontaneous clotting), median (IQR)",[1]; [7],13.7 (11.0-22.2) min
same,"Time to Tsp (spontaneous clotting), range",[1]; [7],7.4 to 54.6 min
same,Change of CS (clot size) with increasing concentrations,[1]; all ADAGE patient samples,decreased
same,Association of D (clot density) with DOAC concentration,[1]; [8],significantly associated
same,Relationship between time to spontaneous clot formation (Tsp) and DOAC levels,[1]; [8],significant association
same,Effect of DOAC concentration at Tmax (βC.pic) on fibrinography initial velocity of clot formation,[1]; [9],≈ 0.01723%
same,Effect of DOAC concentration at Tmin (βC.res) on fibrinography initial velocity of clot formation,[1]; [10],≈ 0.1281%
same,Samples in which spontaneous clotting occurred,[2],33%
same,"DOAC concentration, median (IQR)",[3]; Tmax (peak),171 (123-280) ng/mL
same,"DOAC concentration, range",[3]; Tmax (peak),79 to 665 ng/mL
same,"DOAC concentration, median (IQR)",[3]; Tmin (trough),39 (20-70) ng/mL
same,"DOAC concentration, range",[3]; Tmin (trough),20 to 106 ng/mL
same,"DOAC plasma concentration, lower end of range",[3]; [11],< 20 ng/mL
same,"DOAC plasma concentration, upper end of range",[3]; [11],665 ng/mL
same,Change of Ast (stationary amplitude of thrombin moving peak) with increasing concentrations,[4],decreased
same,"Effect on Cmax_ATG, ETP_ATG and Ast compared with the other DOACs",[4],more pronounced effect
same,"ETP (endogenous thrombin potential, ETP_ATG), median (IQR)",[5]; Tmax (peak),1036 (724-1501) AU⋅min/L
same,"ETP (endogenous thrombin potential, ETP_ATG), range",[5]; Tmax (peak),80-2078 AU⋅min/L
same,"Thrombin peak height (Cmax_ATG), median (IQR)",[5]; Tmax (peak),193 (98-243) AU/L
same,"Thrombin peak height (Cmax_ATG), range",[5]; Tmax (peak),8-354 AU/L
same,"Thrombography Tlag (Lag_ATG), median (IQR)",[5]; Tmax (peak),0.6 (0.4-0.8) min
same,"Thrombography Tlag (Lag_ATG), range",[5]; Tmax (peak),0.2 to 1.5 min
same,"Time to peak (Tmax_ATG), median (IQR)",[5]; Tmax (peak),2.6 (2.1-3.1) min
same,"Time to peak (Tmax_ATG), range",[5]; Tmax (peak),1.6 to 4.6 min
same,"ETP (endogenous thrombin potential, ETP_ATG), median (IQR)",[5]; Tmin (trough),1741 (1602-2290) AU⋅min/L
same,"ETP (endogenous thrombin potential, ETP_ATG), range",[5]; Tmin (trough),1111-2715 AU⋅min/L
same,"Thrombin peak height (Cmax_ATG), median (IQR)",[5]; Tmin (trough),349 (279-380) AU/L
same,"Thrombin peak height (Cmax_ATG), range",[5]; Tmin (trough),168-499 AU/L
same,"Thrombography Tlag (Lag_ATG), median (IQR)",[5]; Tmin (trough),0.2 (0.1-0.2) min
same,"Thrombography Tlag (Lag_ATG), range",[5]; Tmin (trough),0.1 to 0.5 min
same,"Time to peak (Tmax_ATG), median (IQR)",[5]; Tmin (trough),1.85 (1.6-2.1) min
same,"Time to peak (Tmax_ATG), range",[5]; Tmin (trough),1.6 to 2.1 min
same,Change of ETP_ATG with increasing DOAC plasma concentrations,[5]; all ADAGE patient samples,decreased
same,Effect of DOAC concentration at Tmax (βC.pic) on thrombography peak height (PH),[5]; [9],≈ 0.4838%
same,Effect of DOAC concentration at Tmin (βC.res) on thrombography peak height (PH),[5]; [10],≈ 0.4447%
